Measured values reported in paper PMC3179181 (Journal of medicinal chemistry, 2010).
pIC50: −log10 of the molar value. “Also recorded” adds a separate entry of the source.

How the values were obtained:
Caspase 3 and 7 = assay: Caspase 3/7 activity; assay type: cell-based; conditions: 48 hours, 10 μM, versus vehicle; for Caspase 3 and 7 activity: serum free
[1] = rat
PLD2 [2] = molecular target: T1, PLD2 (Homo sapiens, UniProt O14939)
PLD2 [3] = molecular target: T1, PLD2; assay: cell-based
PLD1 = molecular target: T2, PLD1 (Homo sapiens, UniProt Q13393); assay: cell-based
T2 sequence (Q13393 1-1074): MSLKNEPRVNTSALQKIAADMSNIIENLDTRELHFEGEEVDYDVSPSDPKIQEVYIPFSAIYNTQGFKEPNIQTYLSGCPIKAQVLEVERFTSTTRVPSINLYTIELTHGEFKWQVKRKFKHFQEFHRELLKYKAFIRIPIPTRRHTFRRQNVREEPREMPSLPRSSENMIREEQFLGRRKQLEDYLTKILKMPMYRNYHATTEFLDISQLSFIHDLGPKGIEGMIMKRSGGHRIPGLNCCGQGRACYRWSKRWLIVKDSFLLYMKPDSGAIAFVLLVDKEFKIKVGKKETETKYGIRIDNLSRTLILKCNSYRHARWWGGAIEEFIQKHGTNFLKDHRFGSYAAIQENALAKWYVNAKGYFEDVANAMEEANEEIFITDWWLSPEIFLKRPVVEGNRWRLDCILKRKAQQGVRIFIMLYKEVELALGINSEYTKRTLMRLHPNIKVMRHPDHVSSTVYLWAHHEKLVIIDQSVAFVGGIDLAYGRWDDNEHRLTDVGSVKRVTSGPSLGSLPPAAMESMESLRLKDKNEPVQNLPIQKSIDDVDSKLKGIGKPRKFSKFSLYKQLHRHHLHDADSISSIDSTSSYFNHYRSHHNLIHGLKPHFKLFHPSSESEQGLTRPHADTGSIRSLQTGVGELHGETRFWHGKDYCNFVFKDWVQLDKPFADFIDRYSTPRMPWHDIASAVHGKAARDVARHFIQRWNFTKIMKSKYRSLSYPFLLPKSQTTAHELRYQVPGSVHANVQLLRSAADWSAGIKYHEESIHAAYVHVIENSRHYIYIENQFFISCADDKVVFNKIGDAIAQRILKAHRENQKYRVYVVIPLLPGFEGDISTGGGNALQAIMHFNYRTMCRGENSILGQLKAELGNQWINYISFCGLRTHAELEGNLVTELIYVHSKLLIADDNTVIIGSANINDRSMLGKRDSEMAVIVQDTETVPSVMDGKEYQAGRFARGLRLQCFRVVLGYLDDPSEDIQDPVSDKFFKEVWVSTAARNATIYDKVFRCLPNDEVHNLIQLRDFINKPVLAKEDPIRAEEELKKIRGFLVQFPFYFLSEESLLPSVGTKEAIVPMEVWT

T1 sequence (O14939 whole entry): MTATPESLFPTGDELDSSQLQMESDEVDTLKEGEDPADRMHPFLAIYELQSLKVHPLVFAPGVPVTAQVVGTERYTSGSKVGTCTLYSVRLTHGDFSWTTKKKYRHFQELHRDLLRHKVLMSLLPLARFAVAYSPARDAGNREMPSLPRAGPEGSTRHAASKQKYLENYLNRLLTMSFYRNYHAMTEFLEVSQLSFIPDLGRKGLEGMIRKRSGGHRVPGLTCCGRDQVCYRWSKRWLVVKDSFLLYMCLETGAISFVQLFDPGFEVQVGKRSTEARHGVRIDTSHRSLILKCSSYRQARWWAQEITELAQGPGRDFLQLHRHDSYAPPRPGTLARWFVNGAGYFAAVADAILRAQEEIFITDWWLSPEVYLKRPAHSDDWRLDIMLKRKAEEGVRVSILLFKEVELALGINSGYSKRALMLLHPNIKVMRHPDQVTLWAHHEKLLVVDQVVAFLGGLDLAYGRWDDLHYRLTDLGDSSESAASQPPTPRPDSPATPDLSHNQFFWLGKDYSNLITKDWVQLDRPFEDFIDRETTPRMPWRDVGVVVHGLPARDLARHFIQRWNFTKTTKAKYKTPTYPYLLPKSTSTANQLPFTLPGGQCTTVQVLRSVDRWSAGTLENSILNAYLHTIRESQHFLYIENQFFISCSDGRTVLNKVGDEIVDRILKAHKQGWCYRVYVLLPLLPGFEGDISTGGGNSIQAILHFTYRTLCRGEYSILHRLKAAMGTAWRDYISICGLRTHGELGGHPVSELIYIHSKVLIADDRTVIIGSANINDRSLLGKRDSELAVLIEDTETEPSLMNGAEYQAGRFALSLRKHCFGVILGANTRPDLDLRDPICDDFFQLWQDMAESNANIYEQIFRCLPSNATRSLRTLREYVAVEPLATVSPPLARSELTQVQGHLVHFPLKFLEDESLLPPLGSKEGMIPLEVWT

Row | Compound | Caspase 3 and 7 activity (Caspase 3 and 7) | plasma protein binding (% bound) [1] [% bound] | Fold PLD2 Selective (PLD2 [2]) [fold] | pIC50 (PLD2 [3]) | pIC50 (PLD1) | increase in Caspase 3 and 7 activity (Caspase 3 and 7; 10% FBS)
1 | O=C(NCCN1CCC2(CC1)C(=O)NCN2c1cccc(F)c1)c1ccc2ccccc2c1 [22a, N-(2-(1-(3-fluorophenyl)-4-oxo-1,3,8-triazaspiro[4.5]decan-8-yl)ethyl)-2-naphthamide] | increased Caspase 3 & 7 activity | 97.9 | – | – | – | –
2 | C[C@@H](CN1CCC2(CC1)C(=O)NCN2c1ccc(F)c(F)c1)NC(=O)c1ccc2ccccc2c1.O=C(O)C(F)(F)F [24a, (S)-N-(1-(1-(3,4-difluorophenyl)-4-oxo-1,3,8-triazaspiro[4.5]decan-8-yl)propan-2-yl)-2-naphthamide 2,2,2-trifluoroacetate] | – | – | 23 | 6.92 | 5.55 | –
3 | C[C@@H](CN1CCC(n2c(=O)[nH]c3cc(Br)ccc32)CC1)NC(=O)[C@H]1C[C@@H]1c1ccccc1 [compound 14] | increased Caspase 3 & 7 activity | – | – | – | – | marginal increase; also recorded: fairly resistant to PLD inhibitor treatment
